Like-named read-outs stand apart in the source and are kept apart here.

One assay relates to HL-60 cells. Description: HL-60 differentiation (nitro blue tetrazolium reduction). The settings on record: FIG. 2; for EC50: HL-60 cells, read-out: EC50, HL-60 cell differentiation. Format: cell-based, Human. How it is done: The study drugs were dissolved in ethanol and the concentrations determined using UV spectrophotometry. Serial dilutions were prepared so that a range of drug concentrations could be tested without changing the final concentration of ethanol (≦0.2%) present in the cell cultures.
Human promyelocytic leukemia (HL60) cells were grown in RPMI-1640 medium containing 10% fetal bovine serum. The cells were incubated at 37° C. in the presence of 5% CO2.
HL60 cells were plated at 1.2×10^5 cells/ml. Eighteen hours after plating, cells in duplicate were treated with drug. Four days later, the cells were harvested and a nitro blue tetrazolium reduction assay was performed (Collins et al., 1979; J. Exp. Med. 149:969-974). The percentage of differentiated cells was determined by counting a total of 200 cells and recording the number that contained intracellular black-blue formazan deposits. Verification of differentiation to monocytic cells was determined by measuring phagocytic activity (data not shown).

Assay [1] has as its target T1, full-length recombinant rat vitamin D receptor (Rattus norvegicus, UniProt P13053).
T1 construct: Full-length recombinant rat receptor was expressed in E. coli BL21 (DE3) Codon Plus RIL cells; histidine tag (C); made in house; host or cells: E. coli BL21 (DE3) Codon Plus RIL
T1 sequence (P13053 1-423): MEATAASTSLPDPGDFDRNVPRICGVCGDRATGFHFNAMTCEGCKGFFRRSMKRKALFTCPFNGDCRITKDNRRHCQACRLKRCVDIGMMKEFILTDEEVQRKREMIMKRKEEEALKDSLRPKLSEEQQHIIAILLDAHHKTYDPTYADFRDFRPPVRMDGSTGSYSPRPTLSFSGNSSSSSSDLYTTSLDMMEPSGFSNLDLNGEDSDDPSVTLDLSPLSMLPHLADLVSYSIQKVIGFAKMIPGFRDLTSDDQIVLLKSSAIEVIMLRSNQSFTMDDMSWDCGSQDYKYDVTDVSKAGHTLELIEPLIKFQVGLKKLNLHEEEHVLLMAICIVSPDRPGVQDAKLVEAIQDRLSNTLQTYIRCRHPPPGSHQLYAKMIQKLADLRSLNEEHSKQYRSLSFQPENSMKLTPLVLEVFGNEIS
Description: Vitamin D receptor binding (competition with [3H]-1,25(OH)2D3). The settings on record: full-length recombinant rat VDR; FIG. 1. An excerpt: Vitamin D Receptor Binding
Full-length recombinant rat receptor was expressed in E. coli BL21 (DE3) Codon Plus RIL cells and purified to homogeneity using two different column chromatography systems. The first system was a nickel affinity resin that utilizes the C-terminal histidine tag on this protein. The protein that was eluted from this resin was further purified using ion exchange chromatography (S-Sepharose Fast Flow). Aliquots of the purified protein were quick frozen in liquid nitrogen and stored at −80° C. until use. For use in binding assays, the protein was diluted in TEDK50 (50 mM Tris, 1.5 mM EDTA, pH7.4, 5 mM DTT, 150 mM KCl) with 0.1% Chaps detergent. The receptor protein and ligand concentration were optimized such that no more than 20% of the added radiolabeled ligand was bound to the receptor.
Radiolabeled and unlabeled ligands were added to 100 mcl of the diluted protein at a final ethanol concentration of ≦10%, mixed and incubated overnight on ice to reach binding equilibrium. The following day, 100 mcl of hydroxylapatite slurry (50%) was added to each tube and mixed at 10-minute intervals for 30 minutes. The hydroxylapaptite was collected by centrifugation and then washed three times with Tris-EDTA buffer (50 mM Tris, 1.5 mM EDTA, pH 7.4) containing 0.5% Titron X-100. […] Total binding was determined from the tubes containing only radiolabeled ligand.

Assay [2] relates to 24-hydroxylase (24Ohase) gene promoter in ROS 17/2.8 (bone) cells. The experiment in a line: In vitro transcription assay (24-hydroxylase promoter luciferase reporter). In kind it is cell-based. To be noted: FIG. 3; for EC50: ROS 17/2.8 cells, 24-hydroxylase promoter-luciferase, read-out: EC50, transcriptional activity in bone cells. As for the experimental part: In Vitro Transcription Assay
Transcription activity was measured in ROS 17/2.8 (bone) cells that were stably transfected with a 24-hydroxylase (24Ohase) gene promoter upstream of a luciferase reporter gene (Arbour et al., 1998). Cells were given a range of doses. Sixteen hours after dosing the cells were harvested and luciferase activities were measured using a luminometer.
RLU=relative luciferase units.
For orientation: A reporter such as luciferase makes a cellular process visible.

Assay [3] in a line: Intestinal calcium transport (everted gut sac method) in vitamin D-deficient rats. In kind it is in vivo, Sprague-Dawley rats. To be noted: FIG. 5; for intestinal calcium transport: everted gut sac. As for the experimental part:
(§1) Intestinal Calcium Transport and Bone Calcium Mobilization
(§2) Male, weanling Sprague-Dawley rats were placed on Diet 11 (0.47% Ca) diet +AEK oil for one week followed by Diet 11 (0.02% Ca) +AEK oil for 3 weeks. The rats were then switched to a diet containing 0.47% Ca for one week followed by two weeks on a diet containing 0.02% Ca. Dose administration began during the last week on 0.02% calcium diet. Four consecutive ip doses were given approximately 24 hours apart. Twenty-four hours after the last dose, blood was collected from the severed neck and the concentration of serum calcium determined as a measure of bone calcium mobilization. The first 10 cm of the intestine was also collected for intestinal calcium transport analysis using the everted gut sac method.

Assay [4] can be described thus: Bone calcium mobilization (serum calcium) in vitamin D-deficient rats. To be noted: FIG. 4. In kind it is in vivo, Sprague-Dawley rats. How it is done: as §1, §2

Consider `C=C1[C@H](O)CC(=C/C=C2\CCC[C@]3(C)[C@@H]([C@@H](C)CC(F)F)CC[C@@H]23)C[C@H]1O` [FF-55, (20S)-23,23-difluoro-1α-hydroxy-2-methylene-19-nor-bishomopregnacalciferol], for which, in the assay with HL-60 cells, the “potency on HL-60 cell differentiation compared to 1,25(OH)2D3 (in words)” value was “almost as potent as 1,25(OH)2D3”. For the same molecule, the half-maximal effective concentration (EC50) in the assay on HL-60 cells (Homo sapiens) was determined as 10 nM; in assay [2], 3 nM. Besides, in assay [1], the Ki was determined as 0.05 nM. The “binding to vitamin D receptor compared to standard 1,25-(OH)2D3 (in words)” value in assay [1] was “bound almost equally to the receptor”. Further, the “transcriptional activity in bone cells compared to 1α,25-dihydroxyvitamin D3 (in words)” value in assay [2] was “about the same transcriptional activity”. The intestinal calcium transport entry in assay [3] (2340 pmol/day) is listed as “does not promote intestinal calcium transport”; in assay [3] (35100 pmol/day) it was “significant intestinal calcium transport activity”. The “intestinal calcium transport activity compared to 1,25(OH)2D3 (in words)” value in assay [3] (overall) was “very little activity”. In addition, the bone calcium mobilization entry in assay [4] (2340 pmol/day ip for 4 consecutive days, vitamin D-deficient rats, 0.02% Ca diet) is on record as “did not result in mobilization of bone calcium”; in assay [4] (35100 pmol/day, vitamin D-deficient rats, 0.02% Ca diet), “without any effect”. In addition, the “bone calcium mobilization activity compared to 1,25(OH)2D3 (in words)” value in assay [4] (overall) is recorded as “very little bone calcium mobilization activity”.
With `C=C1/C(=C\C=C2/CCC[C@]3(C)[C@@H]([C@H](C)CCCC(C)(C)O)CC[C@@H]23)C[C@@H](O)C[C@@H]1O` [1α,25-dihydroxyvitamin D3, reference compound], the values for the EC50 (in the assay with HL-60 cells; in assay [2]) were 3 nM and 0.3 nM, respectively. In assay [3] (87 pmol/day), the intestinal calcium transport entry is “promotes a significant increase”. Further, in assay [4] (native hormone, dose not given, vitamin D-deficient rats, 0.02% Ca diet), the “serum calcium levels (bone calcium mobilization)” value is reported as “increased serum calcium levels”.

Usually EC50 stands for the concentration that produces a half-maximal response. Broadly, the Ki is a dissociation constant, usually derived from enzyme kinetics or from competition with a known ligand.

The record behind these values is US7718637B2, “(20S)-23,23-difluoro-methylene-19-nor-bishomopregnacalciferol-vitamin D analogs” (Wisconsin Alumni Research Foundation, priority 2007, dated 2010).
